The test system of data set [1] is MCF-7 breast adenocarcinoma cells. The experiment in a line: Western blot of p53 and K382-acetylated p53 levels in MCF-7 cells. The data set is classed as cell-based, human. In general terms: Immunoblotting shows a protein as a band on a membrane.
In the next data set the target is T1, human recombinant SIRT1 (Homo sapiens, UniProt Q96EB6).
T1 sequence (Q96EB6 1-747): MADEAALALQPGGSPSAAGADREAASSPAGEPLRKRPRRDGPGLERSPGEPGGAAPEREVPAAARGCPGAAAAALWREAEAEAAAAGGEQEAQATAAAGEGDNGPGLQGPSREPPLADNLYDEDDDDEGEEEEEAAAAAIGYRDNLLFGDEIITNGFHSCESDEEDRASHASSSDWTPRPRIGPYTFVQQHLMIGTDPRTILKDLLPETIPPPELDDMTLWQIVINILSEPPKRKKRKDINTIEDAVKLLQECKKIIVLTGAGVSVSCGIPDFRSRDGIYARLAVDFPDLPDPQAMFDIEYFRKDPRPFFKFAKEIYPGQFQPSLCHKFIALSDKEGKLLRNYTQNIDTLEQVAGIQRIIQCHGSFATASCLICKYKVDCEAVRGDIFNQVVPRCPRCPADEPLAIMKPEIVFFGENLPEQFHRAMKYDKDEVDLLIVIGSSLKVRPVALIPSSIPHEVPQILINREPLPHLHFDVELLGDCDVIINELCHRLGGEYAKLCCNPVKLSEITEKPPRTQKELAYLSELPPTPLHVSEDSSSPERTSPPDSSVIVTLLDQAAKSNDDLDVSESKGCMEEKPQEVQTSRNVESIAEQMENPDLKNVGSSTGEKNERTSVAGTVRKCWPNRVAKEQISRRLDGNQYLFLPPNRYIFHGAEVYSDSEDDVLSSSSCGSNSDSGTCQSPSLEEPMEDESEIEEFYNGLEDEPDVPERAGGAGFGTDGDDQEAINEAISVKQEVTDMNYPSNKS
Kind of data set: SIRT1 inhibition, Fluor de Lys fluorescence-based assay. Format: biochemical. As to conditions: ratio of IC50 values versus 1.

A further data set has as its system H1299 cells. The experiment in a line: Western blot of K40-acetylated α-tubulin levels in H1299 cells. Format: cell-based, human.
The test system of a further data set is SIRT1. As to conditions: read-out: SIRT1 IC50 (previously reported); in vitro; cited from earlier work.
In another data set the test system is NCI H460 cancer cells. As to conditions: in the presence of etoposide (10 μM); cited from earlier work.
A further data set has as its system SIRT2. As to conditions: read-out: SIRT2 IC50 (previously reported); in vitro; cited from earlier work.

Take `O=c1[nH]c(=S)[nH]c(-c2ccc(Br)cc2)c1Cc1c(O)ccc2ccccc12` [6b, 6-(4′-Bromophenyl)-5-[2″-hydroxynaphthyl-(1″)-methyl]-2-thioxo-2,3-dihydro-1H-pyrimidin-4-one]: the “levels of p53” value in data set [1] (MCF-7, compound alone, in the absence of etoposide, different concentrations) is on record as “did not increase the levels of p53”. For the same compound, the “improvement in activity (IC50) against SIRT1 compared to 1” value on human recombinant SIRT1 stood at 3 fold. For the same compound, the “levels of acetylated α-tubulin” value in the data set with H1299 cells (Figure S13, cell line not given) is given as “did not lead to an increase in the levels of acetylated α-tubulin”.
With `O=c1[nH]c(=S)[nH]c(-c2ccccc2)c1Cc1c(O)ccc2ccccc12` [compound 1, 6-Phenyl-5-[2″-hydroxynaphthyl-(1″)-methyl]-2-thioxo-2,3-dihydro-1H-pyrimidin-4-one], the IC50 (commonly the midpoint of a concentration-inhibition curve) was 56 µM with SIRT1 and 59 µM in the data set on SIRT2. Also, the “levels of p53 and acetylated p53” value in the data set with NCI H460 cancer cells is “increased levels of p53 and acetylated p53”; in data set [1] (MCF-7, in the presence of etoposide (10 μM), 200 μM compound), “decreased again”. Also, in data set [1] (MCF-7, in the presence of etoposide (10 μM), 20 and 50 μM compound, 6 h), the “levels of p53 and Lys382 acetylated p53” value is recorded as “increased”. Moreover, the “levels of acetylated α-tubulin” value with H1299 cells (H1299 cells, with 40 nM trichostatin A, 24 h) is “did lead to an increase in levels of acetylated tubulin”.
As for `CCCCn1c(-c2ccccc2)c(Cc2c(O)ccc3ccccc23)c(=O)[nH]c1=S` [6j, 6-Phenyl-5-[2″-hydroxynaphthalyl-(1″)-methyl]-1-butyl-2-thioxo-2,3-dihydro-1H-pyrimidin-4-one], the “levels of acetylated α-tubulin compared to the effect of 1” value with H1299 cells (H1299 cells, with trichostatin A, concentration range 10–50 μM) was “an increase in the levels of acetylated α-tubulin was achieved”. Also, in the data set on H1299 cells (concentrations higher than 10–50 μM), the toxicity in cells result is listed as “toxicity”.

The values above are taken from publication PMC2691587 (Journal of medicinal chemistry, 2009).
